In patent US20180371044A1, “PEPTIDOMIMETIC MACROCYCLES” (Aileron Therapeutics, Inc., priority 2015, published 2018):
Where a SMILES comes first, the peptide text is derived from it. Bridges are numbered along the chain shown (N, C = ends). [ ]: non-standard residue; d: D form. NMeY = CN[C@@H](Cc1ccc(O)cc1)C(=O)O; R8 = C=CCCCCCC[C@@](C)(N)C(=O)O; S5 = C=CCCC[C@](C)(N)C(=O)O; hSer = N[C@@H](CCO)C(=O)O; Nle = CCCC[C@H](N)C(=O)O; Aib = CC(C)(N)C(=O)O

Assays:
[1] = Plasma compatibility; type: physicochemical
Protocol: The plasma compatibility of exemplary peptidomimetic macrocycles was also determined. Peptidomimetic macrocycles with a plasma compatability value (PC) that is greater than 0.1 were determined as being plasma compatible.

[2] = molecular target: T1, human GHRH receptor (hGHRHR) (Homo sapiens, UniProt Q02643); experiment: GHRHR agonism measured by cAMP (HTRF) in human 293 cells expressing hGHRHR; type: cell-based; details: 30 min at RT;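 further: receptor expressed transiently or stably, cells stimulated in serum-free medium, EC50 from a non-linear dose-response fit, maximal response defined by reference GHRH stimulation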
T1 construct: expressed in transfected cells; host or cells: Human 293 cells
T1 sequence (Q02643 23-423): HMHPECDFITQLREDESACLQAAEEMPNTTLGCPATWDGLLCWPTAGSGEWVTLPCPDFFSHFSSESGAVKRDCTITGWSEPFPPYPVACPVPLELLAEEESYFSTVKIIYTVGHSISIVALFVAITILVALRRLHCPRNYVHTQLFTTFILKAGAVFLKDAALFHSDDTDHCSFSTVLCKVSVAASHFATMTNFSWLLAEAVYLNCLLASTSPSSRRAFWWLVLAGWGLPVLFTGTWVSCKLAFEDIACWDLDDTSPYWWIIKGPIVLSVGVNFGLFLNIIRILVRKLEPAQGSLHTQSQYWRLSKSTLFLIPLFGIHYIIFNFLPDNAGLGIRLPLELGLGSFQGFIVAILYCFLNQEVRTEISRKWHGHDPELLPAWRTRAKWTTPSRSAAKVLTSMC
Protocol: GHRH (1-29) and cross-linked peptidomimetic macrocycles were tested for agonism at the human GHRH receptor (hGHRHR) at various concentrations. Human 293 cells transiently or stably expressing hGHRHR were detached from cell culture flasks with versene (Life Technologies™), suspended in serum-free medium (50 k cells/assay point), and stimulated for 30 min at RT with GHRH (1-29) (Bachem™) or cross-linked peptidomimetic macrocycles. cAMP was quantified using an HTRF®-based assay (CisBio) and used according to the manufacturer's instructions. An EC50 for each agonist was calculated from a non-linear fit of response vs dose (GraphPad™ Prism). The maximum response was determined by stimulating with 10 μM GHRH (1-29). (+=>50 nm; ++=>25-50 nm; +++=>10-25 nm; ++++=>1-10 nm; +++++=≤1 nm).

[3] = Plasma PK/PD study in rats; type: in vivo, rat; details: male Sprague-Dawley rats; for MRT / clearance / Vd / half-life / AUC(0-inf): rat, 3 mg/kg; for clearance: read-out: Clp (converted); for Vd: read-out: Vdss; for half-life: read-out: t ½ (converted); for AUC(0-inf): route not given
Protocol: Five peptidomimetic macrocycles of the invention, as well as sermorelin, were studied to determine pharmacokinetic and pharmacodynamic parameters in rats. Male Sprague-Dawley rats (300 g, non-fasted, cannulated) were used. The study had three arms: IV administration, SC administration, and SC administration (vehicle control). For experiments using sermorelin, a dose level of 3 mg/kg IV/SC bolus was used (dose volume of […] dose and dose concentration of 1 mg/mL). The vehicle used was: 10 wt % N, N-Dimethylacetamide, 10 wt % DMSO, 2 wt % Solutol HS 15 in water for injection containing 45 mg/mL (4.5 wt %) Mannitol and 25 mM (0.38 wt %) Histidine (pH 7.5; 320 mOsm/kg). The peptide was first dissolved at high concentration in DMA and DMSO before a second dilution in Solutol vehicle.
For experiments using peptidomimetic macrocycles, 0.1 mL of DMA and 0.1 mL of DMSO were used to combine with each mg of macrocycle (˜4.3-4.5 mg of macrocycle used in each experiment). Sonication was used to ensure complete solubilization. 0.8 mL of Solutol vehicle was used for each mg of macrocycle in DMA/DMSO. The solutions were mixed gently with pipet or light vortexing. Fresh vials were used for each day of dosing, and macrocycles were stored solid at −20° C. prior to formulation.
For each study arm, 2 rats were bled (350 μL) at specific time points (5 min, 15 min, 30 min, 1 h, 2 h, 4 h, 8 h, 24 h, and 48 h) and a 150 μL bleed was performed just before dosing. Plasma was prepared into K2EDTA tubes by centrifuging for 20 minutes at 4° C. at 2000G maximum 30 minutes after collection. From each 350 μL bleed, 120 μL were transferred to one tube for PK studies and 50 μL to another tube for PD studies and frozen immediately. From the 150 μL bleed, 70 μL were transferred to one tube for PD studies and frozen immediately.

Row | Compound | Plasma Compatability [1] [mg/mL] | EC50 [2] [nM] | AUC Ext (%) [3] [%] | MRT [3] [h] | clearance [3] [mL/min/kg] | Vd [3] [L/kg] | half-life [3] [h] | AUC(0-inf) [3] [ng·h/mL]
1 | CCCC[C@H](NC(=O)[C@@H](NC(=O)[C@H](CC(=O)O)NC(=O)[C@H](CCC(N)=O)NC(=O)[C@H](CC(C)C)NC(=O)[C@H](C)NC(=O)[C@H](CCCCN)NC(=O)[C@H](CCCNC(=N)N)NC(=O)[C@H](C)NC(=O)[C@H](CO)NC(=O)[C@]1(C)CCCC=CCCC[C@](C)(NC(=O)[C@H](CCCCN)NC(=O)[C@H](CCCNC(=N)N)NC(=O)[C@H](Cc2ccc(O)cc2)NC(=O)[C@H](CO)NC(=O)[C@H](CCC(N)=O)NC(=O)[C@@H](NC(=O)[C@H](Cc2ccccc2)NC(=O)[C@@H](NC(=O)[C@H](C)NC(=O)[C@H](CC(=O)O)NC(=O)[C@@H](C)NC(=O)[C@@H](N)Cc2ccc(O)cc2)[C@@H](C)CC)[C@@H](C)O)C(=O)N[C@@H](CC(C)C)C(=O)N[C@@H](C)C(=O)N[C@@H](CCC(N)=O)C(=O)N1)[C@@H](C)CC)C(=O)N[C@@H](CO)C(=O)N[C@@H](CCCNC(=N)N)C(N)=O (single isomer, unassigned) [SP-107] | 1.6 | – | – | – | – | – | – | –
2 | CCCC[C@H](NC(=O)[C@@H](NC(=O)[C@H](CC(=O)O)NC(=O)[C@H](CCC(N)=O)NC(=O)[C@H](CC(C)C)NC(=O)C(C)(C)NC(=O)[C@H](CCCCN)NC(=O)[C@H](CCCNC(=N)N)NC(=O)[C@]1(C)CCCC=CCCCCCC[C@@](C)(NC(=O)[C@H](CCCNC(=N)N)NC(=O)[C@H](Cc2ccc(O)cc2)NC(=O)[C@H](CO)NC(=O)[C@H](C)NC(=O)[C@@H](NC(=O)[C@H](Cc2ccccc2)NC(=O)[C@@H](NC(=O)[C@H](C)NC(=O)[C@H](CC(=O)O)NC(=O)[C@H](C)NC(=O)[C@H](Cc2ccc(O)cc2)NC)[C@@H](C)CC)[C@@H](C)O)C(=O)N[C@@H](C(C)C)C(=O)N[C@@H](CC(C)C)C(=O)N[C@@H](C)C(=O)N[C@@H](CCC(N)=O)C(=O)N[C@@H](CC(C)C)C(=O)N[C@@H](CO)C(=O)N1)[C@@H](C)CC)C(=O)N[C@@H](CO)C(=O)N[C@@H](CCCNC(=N)N)C(N)=O [SP-65] (H-[NMeY]ADAIFTASYR[R8]VLAQLS[S5]RK[Aib]LQDI[Nle]SR-NH2; staple 12-19) | – | 25 to 50 | – | – | – | – | – | –
3 | CCCC[C@H](NC(=O)[C@@H](NC(=O)[C@H](CC(=O)O)NC(=O)C(C)(C)NC(=O)[C@H](CC(C)C)NC(=O)[C@H](C)NC(=O)[C@H](CCCCN)NC(=O)[C@H](CCCNC(=N)N)NC(=O)[C@]1(C)CCCC=CCCCCCC[C@@](C)(NC(=O)[C@H](CCCNC(=N)N)NC(=O)[C@H](Cc2ccc(O)cc2)NC(=O)[C@H](CO)NC(=O)C(C)(C)NC(=O)[C@@H](NC(=O)[C@H](Cc2ccccc2)NC(=O)[C@@H](NC(=O)[C@H](C)NC(=O)[C@H](CC(=O)O)NC(=O)[C@H](C)NC(=O)[C@H](Cc2ccc(O)cc2)NC)[C@@H](C)CC)[C@@H](C)O)C(=O)N[C@@H](C(C)C)C(=O)N[C@@H](CC(C)C)C(=O)N[C@@H](C)C(=O)N[C@@H](CCC(N)=O)C(=O)N[C@@H](CC(C)C)C(=O)N[C@@H](CO)C(=O)N1)[C@@H](C)CC)C(=O)N[C@@H](CO)C(=O)N[C@@H](CCCNC(=N)N)C(N)=O [SP-67] (H-[NMeY]ADAIFT[Aib]SYR[R8]VLAQLS[S5]RKAL[Aib]DI[Nle]SR-NH2; staple 12-19) | – | 10 to 25 | – | – | – | – | – | –
4 | CC[C@H](C)[C@H](NC(=O)[C@H](C)NC(=O)[C@H](CC(=O)O)NC(=O)[C@H](C)NC(=O)[C@H](Cc1ccc(O)cc1)NC)C(=O)N[C@@H](Cc1ccccc1)C(=O)N[C@H](C(=O)N[C@@H](C)C(=O)N[C@@H](CO)C(=O)N[C@@H](Cc1ccc(O)cc1)C(=O)N[C@@H](CCCNC(=N)N)C(=O)N[C@]1(C)CCCCCCC=CCCC[C@@](C)(C(=O)N[C@@H](CCCNC(=N)N)C(=O)N[C@@H](CCCCN)C(=O)N[C@@H](C)C(=O)N[C@@H](CC(C)C)C(=O)N[C@@H](CCC(N)=O)C(=O)N[C@@H](CC(=O)O)C(=O)N[C@H](C(=O)N[C@@H](CCOC)C(=O)N[C@@H](CO)C(=O)N[C@@H](CCCNC(=N)N)C(N)=O)[C@@H](C)CC)NC(=O)[C@H](CO)NC(=O)[C@H](CC(C)C)NC(=O)[C@H](CCC(N)=O)NC(=O)[C@H](C)NC(=O)[C@H](CC(C)C)NC(=O)[C@H](C(C)C)NC1=O)[C@@H](C)O [SP-68] (H-[NMeY]ADAIFTASYR[R8]VLAQLS[S5]RKALQDI[hSer](Me)SR-NH2; staple 12-19) | – | 10 to 25 | – | – | – | – | – | –

The next lines start with the values.

Row | Plasma Compatability [1] [mg/mL] | EC50 [2] [nM] | AUC Ext (%) [3] [%] | MRT [3] [h] | clearance [3] [mL/min/kg] | Vd [3] [L/kg] | half-life [3] [h] | AUC(0-inf) [3] [ng·h/mL] | Compound
5 | – | 25 to 50 | 16.3 | 3.7 | 2.13 | 0.474 | 20.6 | 23500 | CCCC[C@H](NC(=O)[C@@H](NC(=O)[C@H](CC(=O)O)NC(=O)[C@H](CCC(N)=O)NC(=O)[C@H](CC(C)C)NC(=O)[C@H](C)NC(=O)[C@H](CCCCN)NC(=O)[C@H](CCCNC(=N)N)NC(=O)[C@H](C)NC(=O)[C@H](CO)NC(=O)[C@H](CC(C)C)NC(=O)[C@H](CCC(N)=O)NC(=O)[C@H](C)NC(=O)[C@H](CC(C)C)NC(=O)[C@@H](NC(=O)[C@H](CCCCN)NC(=O)[C@H](CCCNC(=N)N)NC(=O)[C@H](Cc1ccc(O)cc1)NC(=O)[C@H](CO)NC(=O)[C@H](C)NC(=O)[C@@H](NC(=O)[C@H](Cc1ccccc1)NC(=O)[C@@H](NC(=O)[C@]1(C)CCCC=CCCC[C@](C)(N)C(=O)N[C@@H](Cc2ccc(O)cc2)C(=O)N[C@@H](C)C(=O)N[C@@H](CC(=O)O)C(=O)N1)[C@@H](C)CC)[C@@H](C)O)C(C)C)[C@@H](C)CC)C(=O)N[C@@H](CO)C(=O)N[C@@H](CCCNC(=N)N)C(N)=O [SP-6] (H-[S5]YAD[S5]IFTASYRKVLAQLSARKALQDI[Nle]SR-NH2; staple 1-5)
6 | – | – | 9.4 | 5.3 | 1.65 | 0.524 | 10.1 | 30500 | CCCC[C@@H]1NC(=O)[C@H]([C@@H](C)CC)NC(=O)[C@H](CC(=O)O)NC(=O)[C@@](C)(NC(=O)[C@H](CC(C)C)NC(=O)[C@H](C)NC(=O)[C@H](CCCCN)NC(=O)[C@H](CCCNC(=N)N)NC(=O)[C@H](C)NC(=O)[C@H](CO)NC(=O)[C@H](CC(C)C)NC(=O)[C@H](CCC(N)=O)NC(=O)[C@H](C)NC(=O)[C@H](CC(C)C)NC(=O)[C@@H](NC(=O)[C@H](CCCCN)NC(=O)[C@H](CCCNC(=N)N)NC(=O)[C@H](Cc2ccc(O)cc2)NC(=O)[C@H](CO)NC(=O)[C@H](C)NC(=O)[C@@H](NC(=O)[C@H](Cc2ccccc2)NC(=O)[C@@H](NC(=O)[C@H](C)NC(=O)[C@H](CC(=O)O)NC(=O)[C@H](C)NC(=O)[C@H](Cc2ccc(O)cc2)NC)[C@@H](C)CC)[C@@H](C)O)C(C)C)CCCC=CCCC[C@@](C)(C(=O)N[C@@H](CCCNC(=N)N)C(N)=O)NC1=O [SP-21] (H-[NMeY]ADAIFTASYRKVLAQLSARKAL[S5]DI[Nle][S5]R-NH2; staple 24-28; N-terminus and C-terminus assumed)
7 | – | – | 3.0 | 2.3 | 1.35 | 0.19 | 9.7 | 37000 | CCCC[C@@H]1NC(=O)[C@H]([C@@H](C)CC)NC(=O)[C@H](CC(=O)O)NC(=O)[C@H](CCC(N)=O)NC(=O)[C@H](CC(C)C)NC(=O)[C@H](C)NC(=O)[C@](C)(NC(=O)[C@H](CCCNC(=N)N)NC(=O)[C@H](C)NC(=O)[C@H](CO)NC(=O)[C@H](CC(C)C)NC(=O)[C@H](CCC(N)=O)NC(=O)[C@H](C)NC(=O)[C@H](CC(C)C)NC(=O)[C@@H](NC(=O)[C@H](CCCCN)NC(=O)[C@H](CCCNC(=N)N)NC(=O)[C@H](Cc2ccc(O)cc2)NC(=O)[C@H](CO)NC(=O)[C@H](C)NC(=O)[C@@H](NC(=O)[C@H](Cc2ccccc2)NC(=O)[C@@H](NC(=O)[C@H](C)NC(=O)[C@H](CC(=O)O)NC(=O)[C@H](C)NC(=O)[C@H](Cc2ccc(O)cc2)NC)[C@@H](C)CC)[C@@H](C)O)C(C)C)CCCCCCC=CCCC[C@@](C)(C(=O)N[C@@H](CCCNC(=N)N)C(N)=O)NC1=O [SP-32] (H-[NMeY]ADAIFTASYRKVLAQLSAR[R8]ALQDI[Nle][S5]R-NH2; staple 21-28; N-terminus and C-terminus assumed)
